Assay results as given in US20150335692A1, “ORAL PREPARATION, INJECTION PREPARATION, EXTERNAL SKIN PREPARATION AND COSMETIC METHOD FOR PREVENTING OR IMPROVING WRINKLES” (Shiseido Company, Ltd., priority 2008, published 2015).
Each block holds one compound with its values, some of them ahead of it.

Experiments:
[1] = tested on: fine wrinkle model; experiment: Anti-wrinkle effects in fine wrinkle model (visual wrinkle score); assay type: in vivo; conditions: 1 mM in 50% aqueous ethanol, 100 μl applied to skin three times a week for two weeks; scored two weeks later; higher scores indicate deeper wrinkles
Method: The anti-wrinkle effects of the heparanase inhibitor, suramin, were assessed using a fine wrinkle model (Non-Patent Document 2).
Suramin was dissolved in 50% aqueous ethanol solution to a concentration of 1 mM and applied in 100 μl aliquots to skin of the fine wrinkle model three times a week for a period of two weeks during which time fine wrinkles are formed. A 50% aqueous ethanol solution was used as a solvent control.
The formation of wrinkles two weeks later was scored by visual evaluation. Wrinkle formation was scored in increments of 0.5 based on evaluation criteria consisting of: no wrinkles: 0, slight wrinkles: 1, obvious wrinkles: 2 and deep wrinkles: 3. Higher scores indicate deeper wrinkles. In contrast to the mean value of the scores of the solvent control being 0.78, that for suramin was 0.31, thereby indicating significant wrinkle inhibitory effects as compared with the solvent control. Namely, the application of suramin at 1 mM significant inhibited wrinkle formation as compared with 50% ethanol applied as a solvent control. […]
The formation of wrinkles two weeks later was scored by visual evaluation. Wrinkle formation was scored in increments of 0.5 based on evaluation criteria consisting of: no wrinkles: 0, slight wrinkles: 1, obvious wrinkles: 2 and deep wrinkles: 3. […]

[2] = tested on: basement membrane heparan sulfate chains; experiment: Immunostaining of epidermal basement membrane heparan sulfate chains in skin of fine wrinkle model; assay type: in vivo; conditions: skin coated with 1 mM compound versus 50% ethanol solvent control
Source text: Next, heparan sulfate chains were immunostained for the skin after 2 days, 1 week and 2 weeks, and the staining results are shown in FIG. 4. Although staining of basement membrane heparan sulfate chains decreased from 2 days to 1 week in skin of the solvent control, stainability of basement membrane heparan sulfate chains was protected by application of suramin.
Next, heparan sulfate chains and perlecan core protein in the skin were immunostained, and the staining results are shown in FIG. 6. Although staining of basement membrane heparan sulfate chains decreased considerably for the solvent control, stainability of basement membrane heparan sulfate chains was protected in the 1-[4-(1H-benzoimidazol-2-yl)-phenyl]-3-[4-(1H-benzoimidazol-2-yl)-phenyl]-urea application group.

[3] = target: T1, heparanase (Homo sapiens, UniProt Q9Y251); experiment: Primary evaluation: heparanase activity inhibition, A431 cell extract on biotinylated heparan sulfate-immobilized plate; assay type: biochemical; conditions: 2 hours at 37° C., DMSO control
T1 construct: the resulting supernatant was used as a cell extract; endogenous in cells; host or cells: A431 cells (lysate supernatant)
T1 sequence (Q9Y251 158-543 limits assumed): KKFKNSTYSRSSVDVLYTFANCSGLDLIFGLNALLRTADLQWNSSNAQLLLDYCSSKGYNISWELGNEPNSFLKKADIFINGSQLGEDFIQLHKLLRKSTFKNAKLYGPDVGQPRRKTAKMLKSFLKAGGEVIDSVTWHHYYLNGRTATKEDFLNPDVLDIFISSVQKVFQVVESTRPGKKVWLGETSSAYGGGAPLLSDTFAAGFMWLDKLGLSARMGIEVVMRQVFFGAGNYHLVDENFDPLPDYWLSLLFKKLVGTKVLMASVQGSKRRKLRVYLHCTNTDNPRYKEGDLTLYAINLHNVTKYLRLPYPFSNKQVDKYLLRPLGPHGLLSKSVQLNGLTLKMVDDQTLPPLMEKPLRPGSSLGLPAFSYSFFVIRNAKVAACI
T1 sequence (Q9Y251 36-109 limits assumed): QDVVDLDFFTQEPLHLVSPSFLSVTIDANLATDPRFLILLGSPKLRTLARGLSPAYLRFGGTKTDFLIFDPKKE
Source text: As will be described in detail in the following examples, primary evaluation of heparanase activity can be carried out by, for example, immobilizing biotinylated heparan sulfate in a 96-well plate, allowing the heparanase to act in the presence of a pharmaceutical preparation or herbal medicine, and evaluating the activity of heparanase as the amount of the decrease in biotinylated heparan sulfate by allowing peroxidase-labeled avidin to act thereon and developing the resulting color. […] Secondary evaluation can be carried out by using HT1080 cells expressing heparanase. […] Therefore, heparanase inhibitory activity can be evaluated on the basis of the degree of migration (recovery) at the scratched site by adding an evaluation reagent.
A431 cells (invasive human epithelial carcinoma cells) were cultured in DMEM medium containing 10% serum. […] The amount of protein in the cell extract was measured with a BCA Protein Assay Kit (Pierce, CA46141). […]
Heparanase activity was calculated from a calibration curve of the A431 cell extract, and inhibition rate (%) was indicated as a relative value to a reference (control) to which the cell extract was not added. […]
The plant extracts were evaluated for heparanase inhibitory effects in accordance with the aforementioned primary and secondary evaluation methods using sample solutions of the plant extracts instead of 4-(1H-benzoimidazol-2-yl)-phenylamine.

[4] = tested on: HT1080 cells; experiment: Secondary evaluation: wound healing assay using HT1080 cells; assay type: cell-based; conditions: HT1080 cells, 1, 10, 100 μM, DMSO control
Source text: As will be described in detail in the following examples, primary evaluation of heparanase activity can be carried out by, for example, immobilizing biotinylated heparan sulfate in a 96-well plate, allowing the heparanase to act in the presence of a pharmaceutical preparation or herbal medicine, and evaluating the activity of heparanase as the amount of the decrease in biotinylated heparan sulfate by allowing peroxidase-labeled avidin to act thereon and developing the resulting color. […] Secondary evaluation can be carried out by using HT1080 cells expressing heparanase. When HT1080 cells are scratched after having been cultured to confluency, cells are known to migrate in a heparanase activity-dependent manner (see Ishida, K., et al., Mol. Cancer Ther., 2004, 3(9): 1069-1077 (Non-Patent Document 4)). Therefore, heparanase inhibitory activity can be evaluated on the basis of the degree of migration (recovery) at the scratched site by adding an evaluation reagent.
HT1080 cells were inoculated into a 6-well plate at 500,000 cells/well, and the medium was replaced with that containing each drug 24 hours later followed by scratching in the vertical direction with a 1000 μL tip. Micrographs were taken 6 hours later and changes at the scratched site were observed. […] DMSO was allowed to act as a control instead of the candidate drugs.

SMILES: Cc1ccc(C(=O)Nc2ccc(S(=O)(=O)O)c3cc(S(=O)(=O)O)cc(S(=O)(=O)O)c23)cc1NC(=O)c1cccc(NC(=O)Nc2cccc(C(=O)Nc3cc(C(=O)Nc4ccc(S(=O)(=O)O)c5cc(S(=O)(=O)O)cc(S(=O)(=O)O)c45)ccc3C)c2)c1 [suramin]
- mean value of wrinkle formation scores (visual evaluation; 0 no wrinkles to 3 deep wrinkles) [1]: 0.31
- stainability of basement membrane heparan sulfate chains (immunostaining) [2]: protected

SMILES: O=C(Nc1ccc(-c2nc3ccccc3[nH]2)cc1)Nc1ccc(-c2nc3ccccc3[nH]2)cc1 [1-[4-(1H-benzoimidazol-2-yl)-phenyl]-3-[4-(1H-benzoimidazol-2-yl)-phenyl]-urea]
- mean value of wrinkle formation scores (visual evaluation; 0 no wrinkles to 3 deep wrinkles) [1]: 0.36
- stainability of basement membrane heparan sulfate chains (immunostaining) [2]: protected

- IC50 [3]: 256 µM
SMILES: Nc1ccc(-c2nc3ccccc3[nH]2)cc1 [4-(1H-benzoimidazol-2-yl)-phenylamine]
- cell migration activity at scratched site [4]: decreased in a concentration-dependent manner
